Assay results taken from paper PMC10747453, “Perturbations in Osteogenic Cell Fate Following Exposure to Constituents Present in Tobacco: A Combinatorial Study” (Toxics, 2023).
“Also recorded” adds a separate entry of the source. Structures can show the parent of a compound that is named as a salt. Where two headings read alike, the source gives them in different places.

Legend:
[1] = test system: cultured rat embryos; design: method as in PMID 8079346; settings: cited from earlier work
[2] = test system: osteogenically differentiating human embryonic stem cells and fibroblasts; assay: hESTo biostatistical prediction model (embryotoxicity class); settings: for Embryotoxicity classification by the biostatistical model, in words: hESTo, skeletal differentiation
Text: (§1) Half-maximal inhibitory doses of cytotoxicity (IC50) and osteogenic differentiation (ID50) were taken from concentration–response curves generated in GraphPad Prism (9.2., GraphPad Software Inc., San Diego, CA, USA) with the “nonlinear regression” function). A biostatistical prediction model based on linear discriminant functions was employed to classify the test chemical into one out of three embryotoxicity categories (strong, weak, and non-embryotoxic). In double combination analyses, a t-test was performed comparing combination to single constituent ID50. For triple combination analyses, a one-way ANOVA with Dunnett’s multiple comparison test (single constituent vs. combination) using GraphPad Prism was conducted. A p-value below 0.05 was considered significant. Heatmaps for double and triple exposures were generated in GraphPad Prism 9.2. Calcium-to-MTT ratios were calculated in Microsoft Excel and imported to ClustVis to generate a principal-component-analysis-based clustered heatmap.
Half-maximal inhibitory concentrations for cell viability (IC50 hESC) and differentiation (ID50 Ca^2+ hESC) were established for penicillin G and all-trans retinoic acid from concentration–response curves. The hESTo then compares these two endpoints to the half-maximal inhibitory concentration for cell viability resulting from exposure of fibroblast cells to the same test compound (IC50 MTT hFF) (Figure 3).

[3] = test system: human foreskin fibroblasts (hFF-1); assay: hESTo MTT assay, fibroblast viability; settings: for IC50: Homo sapiens, HFF-1, read-out: IC50 MTT hFF
Protocol: Human embryonic stem cells of the line H9 (WiCell) were seeded on Matrigel-coated culture plates and cultured in mTeSR1 medium (Stem Cell Technologies, Seattle, WA, USA) at 37 °C with 5% CO2. Approximately every four days, colonies were treated with accutase for 2–4 min at room temperature to dislodge colonies from the plastic and passaged into fresh Matrigel-coated wells. Human foreskin fibroblasts (hFF-1, American Type Culture Collection, Manassas, VA, USA, cat.no. SCRC-1041), were cultured on 0.1% gelatin-coated 6-well plates in Dulbecco’s Modified Eagle Medium (DMEM) with 10% fetal bovine serum, 1% (v/v) non-essential amino acids, 50 U/mL penicillin, and 50 µg/mL streptomycin at 37 °C in a controlled humidified 5% CO2 incubator. Upon 70% confluency, hFFs were passaged at a 1:6 ratio using phosphate-buffered saline (PBS) washes and 2.5% Trypsin/EDTA every two to four days. While in culture, all cells were routinely checked for bacterial, yeast, and microbial contamination using an inverted microscope and tested for mycoplasma using a PCR-based detection kit (abcam, Fremont, CA, USA, ab289834).
(§2) Cells were cultured with concomitant chemical treatment in a double-blind, vehicle-controlled study. […] 241571), and urethane (Sigma Aldrich, cat. no. U2500) were purchased from the indicated companies. Stock solutions were made in DMEM or dimethylsulfoxide, depending on chemical solubility, sonicated when necessary, sterile filtered (0.1 µm), and stored at −20 °C. For liquids, concentrations were calculated from their density. Final dilutions were made in appropriate cell culture medium upon additional sonication of the stock after thawing. Chemical cell treatment started on day 0 of culture/differentiation and continued through day 20 in both H9 hESCs and hFF cells. Medium, including chemical dilutions, were made fresh and changed every other day. All exposures were performed in biological triplicate, each containing technical quintuplicates.
(§3) Viability response to constituent exposure was determined by 3-[4,5-dimethylthiazol-2yl]-2,5-diphenylterazolium bromide (MTT) assay. Cells were incubated with MTT (5 mg/mL) at 37 °C for 2 h. Following incubation, the supernatant was removed and replaced with 0.04 mol/L HCl in isopropanol. The plate was placed on a shaker for 15 min to dissolve aggregates. The optical density of the solution was read at 595 nm (iMark microplate reader; BioRad).
as §1

[4] = test system: osteogenically differentiating H9 hESCs; assay: hESTo calcium assay, osteogenic differentiation of hESCs; assay type: cell-based, human; settings: for IC50: Homo sapiens, 480 h, read-out: ID50 Ca2+ hESC (half-maximal inhibitory concentration of differentiation)
Protocol: Differentiation was induced from hESC cultures through the addition of a control differentiation medium (CDM) composed of DMEM, 15% FBS (Atlanta Biologicals, Flowery Branch, GA, USA), 1% (v/v) non-essential amino acids, 50 U/mL penicillin, 50 µg/mL streptomycin, and 0.1 mM β-mercaptoethanol. Five days after this initial medium change, CDM was supplemented with 1.2 × 10^−7 M 1,25α(OH)2 vitamin D3 (Calbiochem, Burlington, MA, USA), 0.1 mM β-glycerophosphate, and 20.8 µg/mL ascorbic acid.
as §2
Quantification of calcium in the extracellular matrix of the cultures was performed using a calcium assay normalized to protein content. First, cells were lysed with radio-immunoprecipitation buffer (1% NP40, 0.5% sodium deoxycholate, 0.1% sodium dodecyl sulfate in PBS) on day 20 of cellular differentiation. The remaining matrix was dissolved with 1 N HCl and collected. Both lysates were assayed with Arsenazo III (Genzyme), and absorbance was measured at 655 nm (iMark microplate reader; Bio-Rad Laboratories, Hercules, CA, USA). Absorbances were compared to a CaCl2 standard, and total calcium content was normalized to the total protein content of the sample determined by a Lowry assay, measured against a bovine serum albumin standard curve. The Lowry assay was read at 750 nm (iMark microplate reader; Bio-Rad Laboratories) after a 15 min micro-shake incubation. Calculation of final normalized calcium content was performed according to a previously published formula [33].
as §1

[5] = hESTo MTT assay, hESC viability; settings: human
Protocol: (§4) Cells were cultured with concomitant chemical treatment in a double-blind, vehicle-controlled study. […] U2500) were purchased from the indicated companies. […] For liquids, concentrations were calculated from their density. Final dilutions were made in appropriate cell culture medium upon additional sonication of the stock after thawing. Chemical cell treatment started on day 0 of culture/differentiation and continued through day 20 in both H9 hESCs and hFF cells. Medium, including chemical dilutions, were made fresh and changed every other day. All exposures were performed in biological triplicate, each containing technical quintuplicates.
as §3, §1

[6] = test system: H9 hESCs; assay: hESTo MTT assay, hESC viability
Protocol: as §4, §3, §1

[7] = in vivo; cited from earlier work
[8] = human
Protocol: (C) Table listing IC50 and ID50 values, calculated via GraphPad Prism and expressed as µg/mL, embryotoxicity classes calculated according to Genschow et al. [24], and content per cigarette (cig) or gram tobacco as well as actual and calculated plasma concentrations assuming a plasma volume of 3000 mL. […] ID50 = half-maximal inhibitory concentration of differentiation. IC50 = half-maximal concentration of cytotoxicity. hESC, human embryonic stem cell; hFF, human foreskin fibroblast; ND, not determined from the literature [37, 38, 39, 40, 41, 42, 43, 44, 45, 46, 47, 48, 49].

[9] = test system: other aquatic species; settings: cited from earlier work
[10] = H9 hESC, exposure day 0 through day 20, calcium normalized to protein

| SMILES | Embryotoxicity classification by the biostatistical model, in words [2] | IC50 [3] [µg/mL] | IC50 at 20 days [5] [µg/mL] | IC50 [4, 10] [µg/mL] | other results |
| --- | --- | --- | --- | --- | --- |
| Oc1ccccc1O [Catechol, catechol] | strongly embryotoxic; also recorded: strongly developmentally osteotoxic | 9.29 ± 1.71 | 0.071 ± 0.023 |  | Half-maximal lethality [1]: 50 to 100 µM; Concentration above which hFF cell viability changed [3]: above 0.882 µg/mL; IC50 [4]: 0.258 ± 0.166 µg/mL; hESC differentiation endpoint relative to solvent control ([4]; around 0.882 µg/mL): below 25%; hESC cytotoxicity endpoint relative to solvent control ([6]; around 0.882 µg/mL): below 25% |
| CN1C(=O)CC[C@H]1c1cccnc1 [Cotinine, cotinine] | non-embryotoxic | 497 ± 139 | 341 ± 72.9 | 272 ± 82.8 | Approx. plasma concentration [7]: 0.068 to 0.3 µg/mL |
| CC1=C(/C=C/C(C)=C/C=C/C(C)=C/C(=O)O)C(C)(C)CCC1 [All-trans retinoic acid, all-trans retinoic acid, reference compound] |  | 0.061 | 0.036 |  |  |
| c1ccc2c(c1)-c1cccc3c1c-2cc1ccccc13 [Benzo[b]fluoranthene, benzo[b]fluoranthene] | neither chemical classified as developmentally osteotoxic | 110 ± 76.1 | 61 ± 14.8 | 25.8 ± 7.24 |  |
| CN1CCC(c2cccnc2)C1 (stereo not drawn) [Isonicotine, isonicotine] | neither chemical classified as developmentally osteotoxic |  |  |  |  |
| c1ccc2c(c1)cc1ccc3cccc4ccc2c1c34 [Benzo[a]pyrene, benzo[a]pyrene] |  | 1020 ± 653 | 52.9 ± 428 | 2.11 ± 0.65 | Calculated plasma concentration [8]: 0.000036 µg/mL |
| O=c1ccc2ccccc2o1 [Coumarin, coumarin] | strongly developmentally osteotoxic | 0.114 | 0.013 | 0.024 ± 0.009 |  |
| CCOC(N)=O [Urethane, urethane] | non-embryotoxic | > 1000 | > 1000 | > 1000 |  |
| CC1(C)S[C@@H]2[C@H](NC(=O)Cc3ccccc3)C(=O)N2[C@H]1C(=O)O [Penicillin G, penicillin G sodium salt, reference compound] |  | > 1000 | > 1000 |  | Embryotoxicity class ([2]; biostatistical model of Genschow et al. from ID50 hESC, IC50 hESC, IC50 hFF): I |
| c1ccc2cc3c(ccc4ccccc43)cc2c1 [Benz[a]anthracene, benz[a]anthracene] | non-embryotoxic |  |  |  | Effect on hFF cell viability, in words ([3]; tested concentration range up to 1000 µg/mL): did not produce a change in cell viability; ID50 Ca2+ hESC (half-maximal inhibitory concentration of differentiation) [4, 10]: 239.5 µg/mL; IC50 MTT hESC (half-maximal concentration of cytotoxicity) ([6]; H9 hESC, exposure day 0 through day 20): 337.3 µg/mL |
| CN1CCC[C@H]1c1cccnc1 [Nicotine, nicotine] | non-embryotoxic | > 1000 | > 1000 | 633 ± 2350 | Effect on H9 hESC differentiation potential / calcification, in words ([4]; all tested concentration ranges): a decrease in calcification was seen in the higher concentrations |
| C=CC(N)=O [Acrylamide, acrylamide] | non-embryotoxic |  |  |  | Effect on H9 hESC differentiation potential / calcification, in words [4]: caused reductions in cell viability as well as calcification but in very high concentration ranges |
| c1ccc2ncccc2c1 [Quinoline, quinoline] | weakly developmentally osteotoxic | 59.4 ± 19.1 | 2.65 ± 0.51 | 2.27 ± 0.76 | Median lethal dose [9]: 11 µg/mL; Calculated plasma concentration [8]: 0.000045 µg/mL |
| C=CC=O [Acrolein, acrolein] | strongly developmentally osteotoxic |  |  |  |  |
| CC=O [Acetaldehyde] | strongly developmentally osteotoxic |  |  |  |  |
